In publication PMC9168903, “Crystal Structures of Arabidopsis thaliana GDP-D-Mannose Pyrophosphorylase VITAMIN C DEFECTIVE 1” (Frontiers in Plant Science, 2022):
“And” between values parts separate entries of the source, which are not always exact repeats. Identical values can stand only once.

Legend:
VTC1 = target: T1, VTC1 (Arabidopsis thaliana, UniProt O22287); test: X-ray crystal structure, […] Å; assay type: binding
T1 construct: gene CYT1; full-length recombinant, 41 kDa; dimer, tetramer and aggregate in SEC
T1 sequence (O22287 1-361): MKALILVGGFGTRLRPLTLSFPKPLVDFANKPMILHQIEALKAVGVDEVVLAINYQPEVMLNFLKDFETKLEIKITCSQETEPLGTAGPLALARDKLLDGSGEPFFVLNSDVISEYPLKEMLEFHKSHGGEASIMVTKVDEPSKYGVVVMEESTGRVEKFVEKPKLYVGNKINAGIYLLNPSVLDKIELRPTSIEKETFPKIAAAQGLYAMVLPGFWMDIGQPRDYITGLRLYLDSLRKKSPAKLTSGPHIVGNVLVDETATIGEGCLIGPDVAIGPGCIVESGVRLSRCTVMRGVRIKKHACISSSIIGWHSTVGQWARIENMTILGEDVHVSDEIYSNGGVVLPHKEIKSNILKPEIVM

VTC1ΔC = target: T2, VTC1ΔC (Arabidopsis thaliana, UniProt O22287); test: GMPase assay, malachite green phosphate release after pyrophosphatase; assay type: biochemical; settings: 0.2 mM Man-1-P, 0.2 mM GTP, 1 mM MgCl2, 1 mM DTT, 50 mM Tris-HCl pH 7.5, 37 °C, 0.2 μM enzyme
T2 construct: gene CYT1; truncation lacking the C-terminal 139 residues (LβH domain region removed); catalytic domain; recombinant, purified as full-length VTC1

[1] = target: the molecule itself; test: crystal structure; product-bound VTC1 (GDP-Man, PPi, citrate), 3.0 Å, space group R32, two dimers in the asymmetric unit, threefold symmetry
[2] = target: the molecule itself; test: SEC; HiLoad 16/60 Superdex 200 column; purified recombinant VTC1; three peaks compared with protein standards

Molecule: O=P(O)(O)OP(=O)(O)O [inorganic pyrophosphate]
- X-ray crystal structure, 3.0 Å (VTC1; catalytic domain, β1–η1 loop, bound in inner and outer protomers, same site as citrate): the inner and outer protomers each bind a PPi

Molecule: Nc1nc2c(ncn2[C@@H]2O[C@H](COP(=O)(O)OP(=O)(O)O[C@H]3O[C@H](CO)[C@@H](O)[C@H](O)[C@@H]3O)[C@@H](O)[C@H]2O)c(=O)[nH]1 [GDP-D-mannose]
- X-ray crystal structure, 3.0 Å (VTC1; active site of catalytic domain, bound in middle protomer, citrate also bound): The product GDP-Man binds at the edge of the central β-sheet (Figure 4C).

Molecule: Nc1nc2c(ncn2[C@@H]2O[C@H](COP(=O)(O)OP(=O)(O)OP(=O)(O)O)[C@@H](O)[C@H]2O)c(=O)[nH]1 [GTP]
- GMPase assay, malachite green phosphate release after pyrophosphatase (VTC1ΔC): VTC1ΔC retained, but only ca. one third of the GMPase activity

Molecule: O=P(O)(O)O[C@H]1O[C@H](CO)[C@@H](O)[C@H](O)[C@@H]1O [D-mannose-1-phosphate]
- GMPase assay, malachite green phosphate release after pyrophosphatase (VTC1ΔC): VTC1ΔC retained, but only ca. one third of the GMPase activity

B1: Arabidopsis thaliana GDP-D-mannose pyrophosphorylase VITAMIN C … 1 (enzyme, UniProt O22287 1-361, looked up)
chain: T1 sequence (O22287 1-361)
notes: VTC1 (GDP-D-mannose pyrophosphorylase), Arabidopsis thaliana, full-length; recombinant protein stated to have a molecular weight of 41 kDa; also called VTC1; GMPase; source: recombinant, purified (SEC on HiLoad 16/60 Superdex 200); production described previously (Zhao and Liu, 2016)
- stoichiometry N [1]: 12
- stoichiometry N [2]: 2 and 4
